Assay results from US20070264674A1, “Cytochrome P450 Induction Assay” (priority 2004, published 2007).

Assays:
hCAR [1] = target: T1, hCAR (Homo sapiens, UniProt Q14994); assay: Primary rat hepatocytes cotransfected with clone 102-SEAP and hCAR; format: cell-based; set-up: expressed in transfected cells; host or cells: primary rat hepatocytes (transient co-transfection, Effectene); settings: 10 μM Rifampicin, 1 μM CITCO, 1 mM Phenobarbital, 48 h
T1 sequence (Q14994 1-348 isoform Q14994-2): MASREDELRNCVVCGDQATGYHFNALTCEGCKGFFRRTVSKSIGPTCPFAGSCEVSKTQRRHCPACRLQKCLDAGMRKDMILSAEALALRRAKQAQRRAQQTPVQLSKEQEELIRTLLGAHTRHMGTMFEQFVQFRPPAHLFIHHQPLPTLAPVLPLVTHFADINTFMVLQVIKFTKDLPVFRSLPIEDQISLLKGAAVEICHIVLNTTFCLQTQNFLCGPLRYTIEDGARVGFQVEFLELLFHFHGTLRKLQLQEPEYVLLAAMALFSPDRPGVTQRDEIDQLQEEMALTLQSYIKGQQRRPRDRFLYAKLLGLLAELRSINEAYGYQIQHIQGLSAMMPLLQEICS
Experimental: (§1) After four hours, cell culture medium was changed with 1 mL Williams E medium containing Pen/Strep, glutamine and ITS+Premix and the cells were incubated overnight under normal growth condition.
(§2) This was followed by adding 3.2 μL Enhancer and mixing by vortexing for 1 second. […] The cotransfections were followed by adding 3.2 μL Enhancer and mixing by vortexing for 1 second. The transfections/cotransfections were incubated at room temperature for 5 minutes. Then, the mixtures were centrifuged for a few seconds to remove drops from the top of the tube. Next, to each of the mixtures, five μL of Effectene Transfection Reagent was added and the mixtures mixed by vortexing for 10 seconds. The mixtures were then incubated for ten minutes at room temperature to allow transfection complex formation.
(§3) Meanwhile, the growth medium for each of the wells of the 24-well plate containing the cells was removed from the wells and the cells in the wells washed once with 1 mL of growth medium. Then, 350 μL of fresh growth medium was added to each of the wells and 350 μL of growth medium was added to each of the tubes of transfection complexes, which were then mixed and immediately added drop-wise onto the cells in the well. The plates were gently swirled to ensure uniform distribution of the transfection complexes over the cells. […]

hCAR [2] = target: T1, hCAR; assay: SEAP reporter assay in HepG2 cells co-transfected with human CAR; format: cell-based; set-up: A 1047 bp nucleic acid encoding the human CAR (hCAR) obtained from the RT-PCR; expressed in transfected cells; host or cells: HepG2 (transient co-transfection with the reporter plasmid); settings: HepG2 + human CAR (constitutive activation); 48 h; 200 μM Omeprazole, 6 μM Clotrimazole, 125 nM Hyperforin, 12.5 μM Lovastatin, 100 μM N-propyl-p-hydroxy-benzoate
Experimental: The NR donor plasmid encoding the human CAR was made as follows. The human CAR was made by RT-PCR from a human liver mRNA preparation. […] The RT-PCR conditions were 15 seconds at 94° C., 30 cycles of 94° C. for 30 seconds followed by 68° C. for 3 minutes, then 68° C. for 3 minutes, and storage at 4° C.
Controls omitted the DNA encoding the human CAR. Additional controls consisted of DNA encoding the human PXR of the previous example.
After incubating the cells 48 hours at 37° C., the medium form wells were collected for SEAP assays. The assays for SEAP expression were performed with Tropix Phospha-Light system kit.

hPXR = target: T2, hPXR (Homo sapiens, UniProt O75469); assay: Primary rat hepatocytes cotransfected with clone 102-SEAP and hPXR; settings: 10 μM Rifampicin, 1 μM CITCO, 1 mM Phenobarbital, 48 h
T2 sequence (O75469 1-434): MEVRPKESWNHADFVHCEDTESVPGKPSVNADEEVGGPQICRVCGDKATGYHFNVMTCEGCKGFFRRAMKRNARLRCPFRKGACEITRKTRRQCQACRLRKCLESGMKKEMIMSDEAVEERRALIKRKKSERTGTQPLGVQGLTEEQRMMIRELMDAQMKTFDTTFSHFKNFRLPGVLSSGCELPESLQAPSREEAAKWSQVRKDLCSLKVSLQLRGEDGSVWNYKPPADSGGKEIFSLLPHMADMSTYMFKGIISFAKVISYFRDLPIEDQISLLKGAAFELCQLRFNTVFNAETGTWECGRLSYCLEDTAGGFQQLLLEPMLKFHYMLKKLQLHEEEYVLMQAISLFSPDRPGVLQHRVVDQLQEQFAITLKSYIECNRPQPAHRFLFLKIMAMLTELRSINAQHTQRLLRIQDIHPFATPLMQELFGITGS
Experimental: as §1, §2, §3

[3] = system: endogenous rat CAR or PXR; assay: Primary rat hepatocytes transfected with clone 102-SEAP and pUC19 (control, no nuclear receptor); settings: clone 102-SEAP + pUC19, 10 μM Rifampicin, 1 μM CITCO, 1 mM Phenobarbital, 48 h
Experimental: as §1, §2, §3

SMILES | effect on transcription from clone 102-SEAP composite promoter (hCAR [2]) | effect on transcription from ΔCYP3A4 promoter (hCAR [2]) | other results
Clc1ccc(-c2nc3sccn3c2C=NOCc2ccc(Cl)c(Cl)c2)cc1 [CITCO, 6-(4-Chlorophenyl)imidazo[2,1-b][1,3]thiazole-5-carbaldehyde O-(3,4-dichlorobenzyl)oxime] | – | – | induction of clone 102-SEAP expression via hCAR (hCAR [1]): about 4.2 fold
CC[C@H](C)C(=O)O[C@H]1C[C@@H](C)C=C2C=C[C@H](C)[C@H](CC[C@@H]3C[C@@H](O)CC(=O)O3)[C@H]21 [Lovastatin] | not affected | – | –
Clc1ccccc1C(c1ccccc1)(c1ccccc1)n1ccnc1 [Clotrimazole] | inhibitory effect | inhibitory effect | –
CCCOC(=O)c1ccc(O)cc1 [N-propyl-p-hydroxy-benzoate] | not affected | moderate inhibition | –
CCC1(c2ccccc2)C(=O)NC(=O)NC1=O [Phenobarbital] | – | – | induction of clone 102-SEAP expression via hPXR (hPXR): about 3.4 fold; induction of clone 102-SEAP without co-transfected nuclear receptor [3]: no response
